Source: PMC8304783, “Antiadhesive Properties of Imidazolium Ionic Liquids Based on (−)-Menthol Against Candida spp” (International Journal of Molecular Sciences, 2021)

Assays:
Type in all cases: cell-based
[1] = test system: C. albicans strain SC5314; experiment: Biofilm formation on dentures (crystal violet); conditions: for C. albicans biofilm on PFM dental crowns (CV staining) / C. albicans biofilm on acrylic dental crowns (CV staining) / C. albicans biofilm on dental alloy substructures (CV staining): 72 h biofilm, then ILs 25 µM for 2 h; for Visual eradication of C. albicans biofilm formed on dentures: dentures of different materials taken together, ILs 25 µM, 2 h
Excerpt: We evaluated the ability of ILs to eradicate C. albicans biofilm formation on a number of dentures, namely acrylic dental crowns, PFM dental crowns and dental alloy substructures (Figure 2). This approach has the following disadvantage: impossibility of reliable biofilm quantification. However, during in vivo Candida spp. infections and biofilm formation, the fungi attach themselves into porous structure of dentures, and thus we selected them for the studies over commonly used discs. Here, an IL concentration of 25 µM was selected for this investigation. In each condition, a C. albicans biofilm was formed after 72 h incubation, and the collected biomass was microscopically evaluated for the presence of hyphae, pseudohyphae and blastoconidia characteristic of C. albicans (Figure 2). Next, the materials were treated with ILs for 2 h and stained with crystal violet (CV). […] Microscopic observations of the stained biomass from dentures exposed to both 1a and 1b (Figure 2, white arrows) confirmed the presence of C. albicans hyphae and blastoconidia (data not shown).
(§1) To assess the influence of ILs on biofilm formation by C. albicans strain SC5314 on dentures, the following materials were used: acrylic dental crowns, porcelain-fused-to-metal (PFMs) dental crowns and dental alloy substructures. All dentures were kind gifts from Prof. M. Łukaszewicz (Wrocław, Poland). Prior to the experiments, the dentures were sterilized by 1 h incubation in 70% pure ethanol (EtOH) solution, washed with sterile water to remove EtOH residues and dried under aseptic conditions. The experiments were performed by aseptically placing dentures in YPD, supplemented with FBS, and inoculating them with YPD-grown C. albicans suspension (0.01% Vol/Vol). After 72 h of incubation at 37 °C, the dentures were treated for 2 h with the addition of ILs (conc. = 25 µM), washed with PBS and fixed with 0.1% CV solution for 10 min, then washed with PBS to remove the stain residue. The dentures were then dried and photographed. Microscopic preparations were made of biofilm samples which were imaged using the Zeiss Axio Imager A2 microscope equipped with Zeiss Axiocam 503 mono microscope camera.

[2] = test system: C. albicans B4 and Gu5 isolates; experiment: Biofilm of clinical isolates on acrylic dental crowns (crystal violet); conditions: B4 and Gu5 (FLC-resistant); 72 h biofilm, then ILs 25 μM for 2 h
Method: as §1
Figure S1. Detachment of adherent C. albicans clinical isolates after 2 h incubation on polystyrene surfaces by ionic liquids (ILs) (means ± SD; n = 3). Results are presented as percentage of adherent cells relative to untreated controls (100% adhesion). Statistical analysis of detachment at each concentration was performed towards corresponding control experiments (isolates untreated by ILs=100% adhesion) (*, p < 0.05; **, p < 0.01 […]
We selected C. albicans B4 and Gu5 isolates for evaluating the ability of ILs to eradicate biofilm formation on acrylic dental crowns (Figure S2). Both the strains were chosen due to their FLC‐resistance status. An IL concentration of 25 μM was selected for this investigation. In each condition, a C. albicans biofilm was formed after 72 h incubation, and the collected biomass was microscopically evaluated for the presence of hyphae, pseudohyphae and blastoconidia characteristic of C. albicans (Figure S2). […]

C. albicans B4 = experiment: Detachment of adherent clinical isolates from polystyrene; conditions: isolate B4 on polystyrene; highest concentration (4 x MIC)
Method: (§2) Post-adherence treatment with ILs was performed in a similar manner to that described previously by our team. Candida spp. suspensions were prepared by centrifuging YPD-grown cultures and resuspending fungal mass in PBS to an OD600 = 0.6. Sterile 96-well plates were inoculated with the prepared suspensions and incubated for 2 h at 37 °C to induce fungal adhesion. Afterwards, adherent cells were washed with PBS to remove planktonic cells and treated with ILs (concentrations equivalent to 1, 2 or 4 × MIC90 for each fungi) for 2 h at 37 °C. Then, each well was washed with PBS and adherent cells were fixed with 0.1% CV solution for 5 min, and washed with PBS. Cells were then treated with a solution of isopropanol 0.04 N HCL with 0.1% SDS to permeabilize adherent cells and release the CV dye. The absorbance of CV was measured at 590 nm (ASYS UVM 340 Biogenet). The percentage of cells that were removed was determined in comparison to adherent cells treated with PBS only (designated 100% adhesion).
(§3) The effect of imidazolium ILs based on of (1R,2S,5R)‐(−)‐menthol was evaluated on clinical, fluconazole(FLC)‐resistant and FLC‐sensitive C. albicans isolates. C. albicans Gu4 and Gu5 strains were isolated from a patient before and after fluconazole administration, respectively.
(§4) Azole‐resistance of Gu5 origins in overexpression of CDR1 and CD R2. C. albicans B3 and B4 strains […]
(§5) Azole‐resistance of B4 results from overexpression of MDR1. The strains were generous gifts from Prof. S. Milewski (Gdańsk, Poland) and Prof. J. Morschhäuser (Wurzburg, Germany). They are originally referenced in: Franz, R., Ruhnke, M. & Morschhäuser, J. Molecular aspects of fluconazole resistance development in Candida albicans. Mycoses 42, 453–458, (1999).
(§6) Table S1 summarizes the minimal inhibitory and fungicidal concentration (MIC90 and MFC, respectively) values of ILs tested against the C. albicans isolates (for ILs structures see section 5.2. in the mai n text). No difference in case of MIC90 values between the strains was observed. […]

C. albicans B3 = experiment: as above; conditions: isolate B3 on polystyrene; highest concentration (4 x MIC)
Method: as §2, §3, §4, §5, §6

C. albicans Gu4 = experiment: as above; conditions: isolate Gu4 on polystyrene; regardless of the concentration (1, 2, 4 x MIC)
Method: as §2, §3, §4, §5, §6

| Compound | C. albicans biofilm on PFM dental crowns (CV staining) [1] | C. albicans biofilm on acrylic dental crowns (CV staining) [1] | C. albicans biofilm on dental alloy substructures (CV staining) [1] | Visual eradication of C. albicans biofilm formed on dentures [1] | Biofilm of clinical isolates on acrylic dental crowns (CV staining) [2] | Reduction of adhesion (C. albicans B4) | Reduction of adhesion (C. albicans B3) | Reduction of adhesion (C. albicans Gu4) |
| --- | --- | --- | --- | --- | --- | --- | --- | --- |
| CCCCCCCCCn1cc[n+](CO[C@@H]2C[C@H](C)CC[C@H]2C(C)C)c1 [1a, 1-[(1R,2S,5R)-(−)-menthoxymethyl]-3-nonylimidazolium chloride] | residual CV staining was observed | residual CV staining was observed | residual CV staining was observed | partially | residual CV staining | – | – | – |
| CCCCCCCCCCn1cc[n+](CO[C@@H]2C[C@H](C)CC[C@H]2C(C)C)c1 [1b, 3-decyl-1-[(1R,2S,5R)-(−)-menthoxymethyl]imidazolium chloride] | residual CV staining was observed | residual CV staining was observed | residual CV staining was observed | partially | residual CV staining | ~ 10% | ~ 10% | ~ 20% |
| CCCCCCCCCOCn1cc[n+](CO[C@@H]2C[C@H](C)CC[C@H]2C(C)C)c1 [2a, 1-(1R,2S,5R)-(−)-menthoxymethyl-3-nonyloxymethylimidazolium chloride] | did not fully protect | protected | protected | totally | prote ct ed | – | – | – |
